Experimental data: patent US20150157742A1, “[…] OF BIOLOGICAL COMPOUNDS LABELED WITH THE ALPHA EMITTER Ac-225” (priority 2013, published 2015)

Test system: K422 lymphoma cells
Test: Saturation binding assay (Scatchard analysis) on K422 lymphoma cells
Conditions: Scatchard analysis (FIG. 3), read-out: binding affinity
Source text: Vos: “In vitro and in vivo evaluation of direct rhenium-188-labeled anti-CD52 monoclonal antibody alemtuzumab for radioimmunotherapy of B-cell chronic lymphocytic leukemia.” (Nuclear Medicine and Biology 35 (2008) 599-604)].

Ac-225-DOTA-rituximab
Kd: 30 nM
